Reference: patent publication US20240024488A1, “COMPOUNDS AND USES THEREOF” (Foghorn Therapeutics Inc., priority 2020, published 2024)

How the values were obtained:
HiBit-BRM fusion protein = target: T1, HiBit-BRM fusion protein (Homo sapiens, UniProt P51531); experiment: HiBiT-BRM cell-based degradation assay (Nano-Glo HiBiT Lytic Detection, 24 h); conditions: HeLa cell line expressing HiBiT-BRM; for DC50: read-out: BRM HiBit Degradation IC50
T1 construct: expressed in transfected cells
Procedure, shortened: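 Percent BRM loss was derived from HiBiT luminescence relative to DMSO-treated cells and cells given 2 μM of a known BRM/BRG1 degrader. Treatment lasted 24 h in HiBiT-BRM HeLa cells, with a top final concentration of 30 μM.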

[1] = target: T2, HiBit-BRG1 fusion protein (Homo sapiens, UniProt P51532); experiment: HiBiT-BRG1 cell-based degradation assay (Nano-Glo HiBiT Lytic Detection, 24 h); conditions: HeLa cell line expressing HiBit-BRG1 and LgBit; for Dmax: read-out: BRG1 HiBit Degradation Maximum (%); for DC50: read-out: BRMG1 HiBit Degradation IC50
T2 construct: expressed in transfected cells
Procedure, shortened: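 Seed 5000 HeLa HiBit-BRG1/LgBit cells per well; treat 24 h; equilibrate 15 min at room temperature; add Nano-Glo HiBiT lytic reagent, shake 10 min, read luminescence. Percent degradation is scaled between DMSO and 2 μM reference degrader wells.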

T1 sequence (P51531 whole entry, the tested form may be a part): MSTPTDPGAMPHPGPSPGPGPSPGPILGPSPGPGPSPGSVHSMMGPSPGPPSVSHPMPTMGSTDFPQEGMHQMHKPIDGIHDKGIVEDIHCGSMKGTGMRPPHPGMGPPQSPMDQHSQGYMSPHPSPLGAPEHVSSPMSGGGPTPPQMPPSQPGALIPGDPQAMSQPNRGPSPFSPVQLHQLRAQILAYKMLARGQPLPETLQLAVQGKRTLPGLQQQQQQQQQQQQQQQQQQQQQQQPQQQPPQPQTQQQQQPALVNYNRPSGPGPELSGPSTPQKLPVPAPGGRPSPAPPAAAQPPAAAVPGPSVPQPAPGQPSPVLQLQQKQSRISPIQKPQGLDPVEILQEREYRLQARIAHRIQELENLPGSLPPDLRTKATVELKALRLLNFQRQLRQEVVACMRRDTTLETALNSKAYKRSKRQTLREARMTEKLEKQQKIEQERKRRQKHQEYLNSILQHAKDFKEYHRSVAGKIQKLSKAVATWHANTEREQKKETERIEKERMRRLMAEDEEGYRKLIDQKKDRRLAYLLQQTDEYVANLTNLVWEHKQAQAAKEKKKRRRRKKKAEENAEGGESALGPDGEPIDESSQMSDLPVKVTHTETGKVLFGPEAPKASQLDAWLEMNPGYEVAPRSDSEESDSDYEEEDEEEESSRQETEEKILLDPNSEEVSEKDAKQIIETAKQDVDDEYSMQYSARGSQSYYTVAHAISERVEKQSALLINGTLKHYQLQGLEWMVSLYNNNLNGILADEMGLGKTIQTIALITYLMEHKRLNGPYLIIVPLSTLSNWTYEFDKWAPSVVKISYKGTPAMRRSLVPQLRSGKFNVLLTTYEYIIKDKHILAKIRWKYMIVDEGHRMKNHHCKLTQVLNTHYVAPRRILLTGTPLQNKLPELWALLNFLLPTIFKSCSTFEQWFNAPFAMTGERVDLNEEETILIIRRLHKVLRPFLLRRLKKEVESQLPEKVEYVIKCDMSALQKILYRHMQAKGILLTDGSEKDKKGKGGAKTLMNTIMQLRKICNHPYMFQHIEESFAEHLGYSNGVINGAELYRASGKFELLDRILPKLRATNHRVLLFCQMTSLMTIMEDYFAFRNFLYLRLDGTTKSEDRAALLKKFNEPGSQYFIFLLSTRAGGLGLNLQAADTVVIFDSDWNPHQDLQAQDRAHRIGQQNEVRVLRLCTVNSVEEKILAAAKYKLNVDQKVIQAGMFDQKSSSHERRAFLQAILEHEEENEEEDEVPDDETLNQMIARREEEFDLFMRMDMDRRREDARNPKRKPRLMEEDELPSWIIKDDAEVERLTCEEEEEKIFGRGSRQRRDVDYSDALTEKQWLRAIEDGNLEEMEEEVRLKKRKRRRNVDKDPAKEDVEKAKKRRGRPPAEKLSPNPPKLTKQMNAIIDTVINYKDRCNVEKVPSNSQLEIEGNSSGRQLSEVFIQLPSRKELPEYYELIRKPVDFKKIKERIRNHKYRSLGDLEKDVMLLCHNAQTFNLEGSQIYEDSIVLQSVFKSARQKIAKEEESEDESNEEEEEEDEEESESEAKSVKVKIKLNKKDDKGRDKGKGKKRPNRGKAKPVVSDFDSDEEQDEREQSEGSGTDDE
T2 sequence (P51532 whole entry, the tested form may be a part): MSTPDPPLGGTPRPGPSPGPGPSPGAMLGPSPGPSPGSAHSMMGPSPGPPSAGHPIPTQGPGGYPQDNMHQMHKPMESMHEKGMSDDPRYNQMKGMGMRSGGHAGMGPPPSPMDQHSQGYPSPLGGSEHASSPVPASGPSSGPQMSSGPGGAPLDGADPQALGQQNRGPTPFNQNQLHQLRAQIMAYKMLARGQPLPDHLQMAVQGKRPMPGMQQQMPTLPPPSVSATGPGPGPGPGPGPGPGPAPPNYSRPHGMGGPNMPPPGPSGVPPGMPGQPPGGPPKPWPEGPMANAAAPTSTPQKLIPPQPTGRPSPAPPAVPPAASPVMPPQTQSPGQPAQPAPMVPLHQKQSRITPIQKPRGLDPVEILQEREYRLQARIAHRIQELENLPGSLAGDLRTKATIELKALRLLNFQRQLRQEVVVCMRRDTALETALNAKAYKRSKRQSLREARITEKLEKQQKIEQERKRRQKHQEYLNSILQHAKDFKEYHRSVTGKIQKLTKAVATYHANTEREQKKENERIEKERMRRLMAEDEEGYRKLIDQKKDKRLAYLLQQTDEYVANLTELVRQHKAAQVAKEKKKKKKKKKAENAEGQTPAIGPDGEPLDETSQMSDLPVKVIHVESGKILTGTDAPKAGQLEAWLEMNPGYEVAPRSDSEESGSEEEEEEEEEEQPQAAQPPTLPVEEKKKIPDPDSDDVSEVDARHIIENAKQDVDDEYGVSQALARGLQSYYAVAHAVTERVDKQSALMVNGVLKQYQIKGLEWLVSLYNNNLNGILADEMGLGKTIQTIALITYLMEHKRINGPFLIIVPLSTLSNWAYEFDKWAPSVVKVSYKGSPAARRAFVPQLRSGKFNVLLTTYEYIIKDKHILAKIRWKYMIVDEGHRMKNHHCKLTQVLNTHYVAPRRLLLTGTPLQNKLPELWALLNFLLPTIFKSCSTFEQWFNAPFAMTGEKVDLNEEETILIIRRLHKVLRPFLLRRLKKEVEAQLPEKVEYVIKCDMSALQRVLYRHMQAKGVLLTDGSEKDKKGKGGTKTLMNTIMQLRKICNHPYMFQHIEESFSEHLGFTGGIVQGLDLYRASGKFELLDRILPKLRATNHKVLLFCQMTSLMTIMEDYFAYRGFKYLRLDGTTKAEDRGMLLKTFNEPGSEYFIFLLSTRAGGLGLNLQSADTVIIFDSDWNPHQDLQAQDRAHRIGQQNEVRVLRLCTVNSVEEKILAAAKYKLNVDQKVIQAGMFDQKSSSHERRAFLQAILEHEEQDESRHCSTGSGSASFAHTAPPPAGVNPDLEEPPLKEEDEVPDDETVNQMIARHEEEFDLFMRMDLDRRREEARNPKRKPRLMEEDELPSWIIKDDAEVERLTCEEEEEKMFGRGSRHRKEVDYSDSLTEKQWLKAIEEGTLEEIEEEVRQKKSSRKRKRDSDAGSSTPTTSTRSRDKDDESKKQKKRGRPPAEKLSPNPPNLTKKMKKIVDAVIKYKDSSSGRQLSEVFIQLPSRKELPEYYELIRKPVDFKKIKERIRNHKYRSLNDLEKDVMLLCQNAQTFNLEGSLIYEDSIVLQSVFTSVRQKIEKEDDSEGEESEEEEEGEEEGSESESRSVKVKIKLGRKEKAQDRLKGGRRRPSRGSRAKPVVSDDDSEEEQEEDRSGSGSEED

Dmax [1]	DC50 (HiBit-BRM fusion protein)	DC50 [1]	Compound	BRM HiBit Degradation Maximum (%) (HiBit-BRM fusion protein)
> 50%	> 10 nM	> 100 nM	Cc1ncsc1-c1ccc([C@H](C)NC(=O)[C@@H]2C[C@@H](O)CN2C(=O)[C@@H](c2cc(N3CC(CN4CC(c5cc6cc(-c7ccccc7O)nnc6[nH]5)C4)C3)no2)C(C)C)cc1 (single isomer, unassigned) [Compound 163]	A (“A” indicates maximum degradation ≥ 75%)
< 50%	> 100 nM	–	Cc1ncsc1-c1ccc([C@H](C)NC(=O)[C@@H]2C[C@@H](O)CN2C(=O)[C@@H](c2cc(OCCN(C)[C@H]3CCc4[nH]c5nnc(-c6ccccc6O)cc5c4C3)no2)C(C)C)cc1 (single isomer, unassigned) [Compound 165]	A (“A” indicates maximum degradation ≥ 75%)
< 50%	> 10 nM	> 1000 nM	Cc1ncsc1-c1ccc([C@H](C)NC(=O)[C@@H]2C[C@@H](O)CN2C(=O)[C@@H](c2cc(C3CCN(C(=O)[C@@H]4CCc5[nH]c6nnc(-c7ccccc7O)cc6c5C4)CC3)no2)C(C)C)cc1 (single isomer, unassigned) [Compound 166]	A (“A” indicates maximum degradation ≥ 75%)
> 50%	> 100 nM	> 100 nM	Cc1ncsc1-c1ccc([C@H](C)NC(=O)[C@@H]2C[C@@H](O)CN2C(=O)[C@@H](c2cc(OCCNC(=O)[C@H]3CCc4[nH]c5nnc(-c6ccccc6O)cc5c4C3)no2)C(C)C)cc1 (single isomer, unassigned) [Compound 167]	A (“A” indicates maximum degradation ≥ 75%)
< 50%	> 10 nM	–	Cc1ncsc1-c1ccc([C@H](C)NC(=O)[C@@H]2C[C@@H](O)CN2C(=O)[C@@H](c2cc(OCC(=O)N[C@H]3CCc4[nH]c5nnc(-c6ccccc6O)cc5c4C3)no2)C(C)C)cc1 (single isomer, unassigned) [Compound 168]	A (“A” indicates maximum degradation ≥ 75%)
< 50%	> 10 nM	–	Cc1ncsc1-c1ccc([C@H](C)NC(=O)[C@@H]2C[C@@H](O)CN2C(=O)[C@@H](c2cc(OCCNC(=O)[C@@H]3CCc4[nH]c5nnc(-c6ccccc6O)cc5c4C3)no2)C(C)C)cc1 (single isomer, unassigned) [Compound 172]	A (“A” indicates maximum degradation ≥ 75%)
> 50%	> 100 nM	> 1000 nM	Cc1ncsc1-c1ccc([C@H](C)NC(=O)[C@@H]2C[C@@H](O)CN2C(=O)[C@@H](c2cc(N3CCC(CN[C@@H]4CCc5[nH]c6nnc(-c7ccccc7O)cc6c5C4)CC3)no2)C(C)C)cc1 (single isomer, unassigned) [Compound 173]	A (“A” indicates maximum degradation ≥ 75%)
< 50%	–	–	Cc1ncsc1-c1ccc([C@H](C)NC(=O)[C@@H]2C[C@@H](O)CN2C(=O)[C@H](c2cc(C3CN(C(=O)c4cc5cc(-c6ccccc6O)nnc5[nH]4)C3)no2)C(C)C)cc1 (single isomer, unassigned) [Compound 176]	C (“C” indicates maximum degradation < 50%)
< 50%	–	–	Cc1ncsc1-c1ccc([C@H](C)NC(=O)[C@@H]2C[C@@H](O)CN2C(=O)[C@@H](c2cc(C3CN(C(=O)c4cc5cc(-c6ccccc6O)nnc5[nH]4)C3)no2)C(C)C)cc1 (single isomer, unassigned) [Compound 178]	C (“C” indicates maximum degradation < 50%)

More lines, now with the values behind:

Compound	Dmax [1]	DC50 (HiBit-BRM fusion protein)	DC50 [1]	BRM HiBit Degradation Maximum (%) (HiBit-BRM fusion protein)
Cc1ncsc1-c1ccc([C@H](C)NC(=O)[C@@H]2C[C@@H](O)CN2C(=O)[C@@H](c2cc(CN3CC(c4cc5cc(-c6ccccc6O)nnc5[nH]4)C3)no2)C(C)C)cc1 (single isomer, unassigned) [Compound 137]	< 50%	–	–	A (“A” indicates maximum degradation ≥ 75%)
Cc1ncsc1-c1ccc([C@H](C)NC(=O)[C@@H]2C[C@@H](O)CN2C(=O)[C@@H](c2cc(OCCCN[C@@H]3CCc4[nH]c5nnc(-c6ccccc6O)cc5c4C3)no2)C(C)C)cc1 (single isomer, unassigned) [Compound 145]	< 50%	> 100 nM	–	A (“A” indicates maximum degradation ≥ 75%)
Cc1ncsc1-c1ccc([C@H](C)NC(=O)[C@@H]2C[C@@H](O)CN2C(=O)[C@@H](c2cc(N3CCC(C(=O)N[C@@H]4CCc5[nH]c6nnc(-c7ccccc7O)cc6c5C4)CC3)no2)C(C)C)cc1 (single isomer, unassigned) [Compound 146]	> 75%	> 10 nM	> 100 nM	A (“A” indicates maximum degradation ≥ 75%)
Cc1ncsc1-c1ccc([C@H](C)NC(=O)[C@@H]2C[C@@H](O)CN2C(=O)C(c2cc(C3CCN(C(=O)[C@H]4CCc5[nH]c6nnc(-c7ccccc7O)cc6c5C4)CC3)no2)C(C)C)cc1 (single isomer, unassigned) [Compound 147]	> 50%	> 10 nM	> 100 nM	A (“A” indicates maximum degradation ≥ 75%)
Cc1ncsc1-c1ccc([C@H](C)NC(=O)[C@@H]2C[C@@H](O)CN2C(=O)[C@@H](c2cc(CCN3CC(c4cc5cc(-c6ccccc6O)nnc5[nH]4)C3)no2)C(C)C)cc1 (single isomer, unassigned) [Compound 152]	< 50%	> 100 nM	–	B (“B” indicates maximum degradation ≥ 50%)
Cc1ncsc1-c1ccc([C@H](C)NC(=O)[C@@H]2C[C@@H](O)CN2C(=O)[C@H](c2cc(C3CN(C(=O)[C@H]4CCc5[nH]c6nnc(-c7ccccc7O)cc6c5C4)C3)no2)C(C)C)cc1 (single isomer, unassigned) [Compound 153]	< 50%	–	–	C (“C” indicates maximum degradation < 50%)
Cc1ncsc1-c1ccc([C@H](C)NC(=O)[C@@H]2C[C@@H](O)CN2C(=O)[C@H](c2cc(C3CN(C(=O)[C@@H]4CCc5[nH]c6nnc(-c7ccccc7O)cc6c5C4)C3)no2)C(C)C)cc1 (single isomer, unassigned) [Compound 154]	< 50%	–	–	C (“C” indicates maximum degradation < 50%)
Cc1ncsc1-c1ccc([C@H](C)NC(=O)[C@@H]2C[C@@H](O)CN2C(=O)[C@H](c2cc(C3CCN(C(=O)[C@H]4CCc5[nH]c6nnc(-c7ccccc7O)cc6c5C4)CC3)no2)C(C)C)cc1 (single isomer, unassigned) [Compound 155]	< 50%	–	–	C (“C” indicates maximum degradation < 50%)
Cc1ncsc1-c1ccc([C@H](C)NC(=O)[C@@H]2C[C@@H](O)CN2C(=O)[C@@H](c2cc(C3CN(C(=O)[C@@H]4CCc5[nH]c6nnc(-c7ccccc7O)cc6c5C4)C3)no2)C(C)C)cc1 (single isomer, unassigned) [Compound 158]	< 50%	> 100 nM	–	A (“A” indicates maximum degradation ≥ 75%)
Cc1ncsc1-c1ccc([C@H](C)NC(=O)[C@@H]2C[C@@H](O)CN2C(=O)[C@H](c2cc(N3CC(CN4CC(c5cc6cc(-c7ccccc7O)nnc6[nH]5)C4)C3)no2)C(C)C)cc1 (single isomer, unassigned) [Compound 162]	> 50%	–	> 1000 nM	C (“C” indicates maximum degradation < 50%)
